Laboratory results: patent US9730944B2, “Antiviral activity of novel bicyclic heterocycles” (priority 2010, dated 2017)

How the values were obtained:
[1] = tested on: genotype 1a H-77 replicon; assay: HCV-1a replicon potency in RLuc-1 cells, bioluminescence; type: cell-based; details: for HCV-1a Replicon Selectivity Index: CC50/EC50, genotype 1a replicon; for EC50: Hepatitis C virus, 72 h, read-out: HCV-1a Replicon EC50 (μM)
[2] = Cytotoxicity in HCV-1a replicon cells, Promega CellTiter-Glo cell viability assay
HIV-1 strain IIIB = assay: Inhibition of replication of HIV-1 (IIIB strain) in MT-4 cells, MTT assay; type: cell-based; details: Human immunodeficiency virus 1, IIIB, MT4, 120 h; MT-4 cells, MTT assay, five days after infection, 50% protection from cytopathic effect; read-out: EC50 (μM) HIV-1 (IIIB)
in vitro = details: human
HIV-2 strain (ROD) = assay: Inhibition of replication of HIV-2 (ROD strain) in MT-4 cells, MTT assay; type: cell-based; details: Human immunodeficiency virus 2, MT4, 120 h; MT-4 cells, MTT assay, five days after infection, 50% protection from cytopathic effect; read-out: EC50 (μM) HIV-2 (ROD)

Compound | HCV-1a Replicon Selectivity Index [1] | EC50 [1] [µM] | CC50 at 72 h [2] [µM] | EC50 (HIV-1 strain IIIB) [µM] | CC50 (in vitro) [µM] | EC50 (HIV-2 strain (ROD)) [µM]
CN(C(=O)CN1CCN(c2nc(N)nc3[nH]c(-c4ccc(F)cc4)nc23)CC1)c1ccccc1 [Example 413, 2-(4-(2-amino-8-(4-fluorophenyl)-9H-purin-6-yl)piperazin-1-yl)-N-methyl-N-phenylacetamide] | 0.5 | > 44.4 | 20.3 | – | – | –
Nc1nc(N2CCN(S(=O)(=O)Cc3ccccc3)CC2)c2nc(CCc3ccc(F)cc3)sc2n1 [Example 137, 5-amino-2-[2-(4-fluorophenyl)ethyl]-7-[4-phenylmethanesulfonylpiperazin-1-yl]-thiazolo[5,4-d]pyrimidine] | 0.8 | 26.9 | 21.8 | – | – | –
CCOc1nc(N)nc2sc(Cc3ccc(F)cc3)nc12 [Example 31, 7-ethoxy-2-(4-fluorobenzyl)thiazolo[5,4-d]pyrimidin-5-amine] | – | – | – | > 411 | > 411 | > 411
Nc1nc(N2CCN(c3nccs3)CC2)c2nc(-c3ccc(F)cc3)sc2n1 [Example 36, 2-(4-fluorophenyl)-7-(4-(thiazol-2-yl)piperazin-1-yl)thiazolo[5,4-d]pyrimidin-5-amine] | – | – | – | > 29 | 36.4 | > 36.4
Cc1ccc(NC(=O)N2CCN(c3nc(N)nc4sc(-c5ccc(F)cc5)nc34)CC2)cc1 [Example 42, 4-(5-amino-2-(4-fluorophenyl)-thiazolo[5,4-d]pyrimidin-7-yl)-N-p-tolylpiperazine-1-carboxamide] | – | – | – | 1.35 | 28.2 | 0.98
CCCSc1nc2c(N3CCN(C(=O)COc4ccc(Cl)cc4)CC3)nc(N)nc2[nH]1 [Example 425, 1-(4-(2-amino-8-(propylthio)-9H-purin-6-yl)piperazin-1-yl)-2-(4-chlorophenoxy)ethanone] | 19.7 | 1.2 | 23.6 | – | – | –
CCCCCN1CCN(c2nc(N)nc3sc(-c4ccc(F)cc4)nc23)CC1 [Example 37, 2-(4-fluorophenyl)-7-(4-pentylpiperazin-1-yl)thiazolo[5,4-d]pyrimidin-5-amine] | – | – | – | > 312 | > 312 | 212
Nc1nc(N[C@H]2CCN(C(=O)COc3ccc(Cl)cc3)C2)c2nc(CCc3ccc(F)cc3)sc2n1 [Example 147, 5-amino-2-[2-(4-fluorophenyl)ethyl]-7-(1-(4-chlorophenoxyacetyl)pyrrolidin-3-(S)-ylamino)-thiazolo[5,4-d]pyrimidine] | 0.5 | 31 | 15.5 | – | – | –
Nc1nc(N2CCN(CC(=O)NCCc3ccccc3)CC2)c2nc(CCc3ccc(F)cc3)sc2n1 [Example 141, 5-amino-2-[2-(4-fluorophenyl)ethyl]-7-(4-(phenethylcarbamoyl-methyl)piperazin-1-yl)-thiazolo[5,4-d]pyrimidine] | 1.0 | 15.8 | 16 | – | – | –
Nc1nc(N2CCN(C(=O)COc3ccc(Cl)cc3)CC2)c2nc(CCc3cccs3)sc2n1 [Example 154, 5-amino-2-(2-thiophen-2-ylethyl)-7-(4-[2-(4-chloro-phenoxy)acetyl]piperazin-1-yl)thiazolo[5,4-d]pyrimidine] | – | > 44.4 | > 44.4 | – | – | –
Nc1nc(N2CCN(C(=O)COc3ccccc3)CC2)c2nc(CCc3ccc(F)cc3)sc2n1 [Example 134, 5-amino-2-[2-(4-fluorophenyl)ethyl]-7-(4-[2-phenoxyacetyl]piperazin-1-yl)-thiazolo[5,4-d]pyrimidine] | – | > 44.4 | > 44.4 | – | – | –
Nc1nc(N2CCN(C(=O)COc3ccc(Cl)cc3)CC2)c2nc(-c3ccc(Cl)c(Cl)c3)sc2n1 [Example 116, 5-amino-7-[4-(4-chlorophenoxyacetyl)piperazin-1-yl]-2-(3,4-dichlorophenyl)thiazolo[5,4-d]pyrimidine] | 0.8 | > 44.4 | 37.2 | – | – | –
Nc1nc(N2CCN(C(=O)Cc3cccs3)CC2)c2nc(-c3ccc(F)cc3)[nH]c2n1 [Example 403, 1-(4-(2-amino-8-(4-fluorophenyl)-9H-purin-6-yl)piperazin-1-yl)-2-(thiophen-2-yl)ethanone] | 0.8 | 11.3 | 9.6 | – | – | –
Nc1nc(SCc2ccccc2)c2nc(-c3ccc(F)cc3)sc2n1 [Example 28, 7-(benzylthio)-2-(4-fluorophenyl)thiazolo[5,4-d]pyrimidin-5-amine] | – | – | – | > 339 | > 339 | > 339
Nc1nc(N2CCN(S(=O)(=O)c3ccccc3)CC2)c2nc(-c3ccc(F)cc3)sc2n1 [Example 41, 2-(4-fluorophenyl)-7-(4-(phenylsulfonyl)piperazin-1-yl)thiazolo[5,4-d]pyrimidin-5-amine] | – | – | – | > 237 | 237 | > 237
Nc1nc(N2CCOCC2)c2nc(Cc3ccc(F)cc3)sc2n1 [Example 34, 2-(4-fluorobenzyl)-7-morpholino-thiazolo[5,4-d]pyrimidin-5-amine] | – | – | – | > 362 | > 362 | > 362

Compound | HCV-1a Replicon Selectivity Index [1] | EC50 [1] [µM] | CC50 at 72 h [2] [µM] | EC50 (HIV-1 strain IIIB) [µM] | CC50 (in vitro) [µM] | EC50 (HIV-2 strain (ROD)) [µM]
COCCOc1nc(N)nc2sc(-c3ccc(F)cc3)nc12 [Example 29, 2-(4-fluorophenyl)-7-(2-methoxyethoxy)-thiazolo[5,4-d]pyrimidin-5-amine] | – | – | – | > 390 | > 390 | 220
Nc1nc(N2CCNCC2)c2nc(-c3ccc(F)cc3)sc2n1 [Example 25, 2-(4-fluorophenyl)-7-(piperazin-1-yl)-thiazolo[5,4-d]pyrimidin-5-amine] | – | – | – | > 1.8 | 1.8 | > 1.8
Nc1nc(N2CCOCC2)c2nc(-c3ccc(F)cc3)sc2n1 [Example 33, 2-(4-fluorophenyl)-7-morpholino-thiazolo[5,4-d]pyrimidin-5-amine] | – | – | – | > 207 | 235 | 141
Nc1nc(N2CCN(C(=O)COc3ccc(Cl)cc3)CC2)c2nc(-c3ccc(F)cc3)oc2n1 [Example 169, 1-(4-(5-amino-2-(4-fluorophenyl)oxazolo[5,4-d]pyrimidin-7-yl)piperazin-1-yl)-2-(4-chlorophenoxy)ethanone] | – | – | – | > 50 | > 50 | > 50
COc1ccc(OCC(=O)N2CCN(c3nc(N)nc4sc(CCc5ccc(F)cc5)nc34)CC2)cc1 [Example 50, 1-(4-(5-amino-2-(4-fluorophenethyl)thiazolo[5,4-d]pyrimidin-7-yl)piperazin-1-yl)-2-(4-methoxyphenoxy)ethanone] | – | – | – | 3.5 | 212 | > 212
Nc1nc(N2CCN(Cc3ccccc3)CC2)c2nc(-c3ccc(F)cc3)sc2n1 [Example 39, 7-(4-benzylpiperazin-1-yl)-2-(4-fluorophenyl)thiazolo[5,4-d]pyrimidin-5-amine] | – | – | – | > 45.2 | 45.2 | > 45.2
Nc1nc(N2CCN(CC(=O)N3CCOCC3)CC2)c2nc(-c3ccc(F)cc3)sc2n1 [Example 38, 2-(4-(5-amino-2-(4-fluorophenyl)thiazolo[5,4-d]pyrimidin-7-yl)piperazin-1-yl)-1-morpholinoethanone] | – | – | – | > 251 | 201 | > 201
Nc1nc(N2CCOCC2)c2cc(-c3ccc(F)cc3)sc2n1 [Example 364, 6-(4-fluorophenyl)-4-morpholinothieno[2,3-d]pyrimidin-2-amine] | – | – | – | > 239 | 239 | > 239
Nc1nc(N2CCN(C(=O)OCc3ccccc3)CC2)c2nc(-c3ccc(F)cc3)sc2n1 [Example 40, benzyl-4-(5-amino-2-(4-fluorophenyl)thiazolo[5,4-d]pyrimidin-7-yl)piperazine-1-carboxylate] | – | – | – | > 241 | 241 | > 241
Cc1cccc(NC(=O)N2CCN(c3nc(N)nc4sc(C(C)c5ccc(F)cc5)nc34)CC2)c1 (stereo not shown) [Example 68, 4-(5-amino-2-(1-(4-fluorophenyl)ethyl)thiazolo[5,4-d]pyrimidin-7-yl)-N-m-tolylpiperazine-1-carboxamide] | – | – | – | > 30.3 | 30.3 | > 30.3
Cc1cccc(NC(=O)N2CCN(c3nc(N)nc4sc(-c5ccc(F)cc5)nc34)CC2)c1 [Example 43, 4-(5-amino-2-(4-fluorophenyl)thiazolo[5,4-d]pyrimidin-7-yl)-N-m-tolylpiperazine-1-carboxamide] | – | – | – | 0.4 | 15.8 | 0.39
Cc1cccc(N2CCN(c3nc(N)nc4sc(-c5ccc(F)cc5)nc34)CC2)c1 [Example 35, 2-(4-fluorophenyl)-7-(4-m-tolylpiperazin-1-yl)-thiazolo[5,4-d]pyrimidin-5-amine] | – | – | – | > 234 | 234 | > 38.5
CCOc1nc(N)nc2sc(-c3ccc(F)cc3)nc12 [Example 30, 7-ethoxy-2-(4-fluorophenyl)thiazolo[5,4-d]pyrimidin-5-amine] | – | – | – | > 373 | > 373 | > 373
Cc1cccc(NC(=O)N2CCN(c3nc(N)nc4sc(Cc5ccc(F)cc5)nc34)CC2)c1 [Example 44, 4-(5-amino-2-(4-fluorobenzyl)thiazolo[5,4-d]pyrimidin-7-yl)-N-m-tolylpiperazine-1-carboxamide] | – | – | – | 4.02 | 10.1 | 0.85
CSc1nc(N)nc2sc(-c3ccc(F)cc3)nc12 [Example 16, 2-(4-fluorophenyl)-7-(methylthio)thiazolo[5,4-d]pyrimidin-5-amine] | – | – | – | > 233 | 82.1 | > 82.1
